± gives the standard deviation of the averaged measurements.
What was measured:
2-METHOXYESTRADIOL = compound: COc1cc2c(cc1O)CC[C@@H]1[C@@H]2CC[C@]2(C)[C@@H](O)CC[C@@H]12 [2-METHOXYESTRADIOL]; experiment: surviving fraction relative to DMSO-only wells; higher = less growth inhibition; settings: exposure time: 5 days
Summary of the method: (§1)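 Luminescence normalised to the median of DMSO-only wells defines surviving fraction, with viability read by CellTiter-Glo. Signal was recorded after 10 minutes at room temperature, once log-phase tumour cell lines seeded at 250–500 cells per well in 384-well plates had spent 24 hours settling and then five days under continuous exposure to inhibitors at 0.5, 1, 5, 10, 50, 100, 500 and 1000 nM.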

17-AAG = compound: C=CCNC1=C2C[C@@H](C)C[C@H](OC)[C@H](O)[C@@H](C)/C=C(\C)[C@H](OC(N)=O)[C@@H](OC)/C=C\C=C(/C)C(=O)NC(=CC1=O)C2=O [17-AAG]; experiment: as above; settings: exposure time: 5 days
Summary of the method: as §1

Test System	surviving fraction (2-METHOXYESTRADIOL; 0.5 nM)	surviving fraction (2-METHOXYESTRADIOL; 1 nM)	surviving fraction (2-METHOXYESTRADIOL; 5 nM)	surviving fraction (2-METHOXYESTRADIOL; 10 nM)	surviving fraction (2-METHOXYESTRADIOL; 50 nM)	surviving fraction (2-METHOXYESTRADIOL; 100 nM)	surviving fraction (2-METHOXYESTRADIOL; 500 nM)	surviving fraction (2-METHOXYESTRADIOL; 1000 nM)	surviving fraction (17-AAG; 0.5 nM)	surviving fraction (17-AAG; 1 nM)	surviving fraction (17-AAG; 5 nM)	surviving fraction (17-AAG; 10 nM)	surviving fraction (17-AAG; 50 nM)	surviving fraction (17-AAG; 100 nM)	surviving fraction (17-AAG; 500 nM)	surviving fraction (17-AAG; 1000 nM)
93VU HEADNECK	0.864 ± 0.13	0.829 ± 0.072	1.07 ± 0.096	1.14 ± 0.062	1.09 ± 0.058	0.921 ± 0.017	0.741 ± 0.049	0.788 ± 0.034	0.814 ± 0.066	0.78 ± 0.0099	0.822 ± 0.088	0.92 ± 0.087	1.13 ± 0.099	0.119 ± 0.011	0.092 ± 0.0062	0.0827 ± 0.005
CADOES1 SOFT TISSUE	0.795 ± 0.055	0.875 ± 0.099	0.846 ± 0.11	0.894 ± 0.18	0.886 ± 0.047	0.867 ± 0.15	0.964 ± 0.062	0.358 ± 0.098	0.884 ± 0.093	1.01 ± 0.07	1 ± 0.076	0.903 ± 0.023	0.876 ± 0.11	0.842 ± 0.1	0.454 ± 0.1	0.129 ± 0.022
YAMATO SYNOVIAL	1.06 ± 0.051	1.14 ± 0.052	1.08 ± 0.079	1.16 ± 0.028	1.18 ± 0.075	1.13 ± 0.11	0.521 ± 0.04	0.445 ± 0.031	0.976 ± 0.059	0.815 ± 0.022	0.936 ± 0.084	0.89 ± 0.039	1.22 ± 0.039	0.735 ± 0.064	0.357 ± 0.0093	0.318 ± 0.0064
HCC1395 BREAST	0.926 ± 0.081	1.15 ± 0.08	1.14 ± 0.035	1.25 ± 0.085	1.24 ± 0.027	1.22 ± 0.072	1.17 ± 0.083	0.907 ± 0.088	0.823 ± 0.02	0.862 ± 0.035	0.957 ± 0.12	0.93 ± 0.067	1.21 ± 0.12	1.13 ± 0.18	0.899 ± 0.15	0.803 ± 0.1
MDAMB361 BREAST	0.843 ± 0.082	0.827 ± 0.11	0.865 ± 0.046	0.829 ± 0.11	0.788 ± 0.043	0.8 ± 0.083	0.666 ± 0.014	0.701 ± 0.081	0.765 ± 0.078	0.728 ± 0.036	0.454 ± 0.036	0.332 ± 0.047	0.278 ± 0.023	0.267 ± 0.015	0.324 ± 0.014	0.313 ± 0.038
SG32 HEADNECK	1.04 ± 0.1	0.985 ± 0.03	1.04 ± 0.21	0.96 ± 0.083	0.947 ± 0.059	0.847 ± 0.075	0.62 ± 0.12	0.34 ± 0.034	0.955 ± 0.12	0.834 ± 0.19	0.875 ± 0.16	0.881 ± 0.14	0.528 ± 0.097	0.259 ± 0.042	0.0457 ± 0.0023	0.034 ± 0.0044
CAL120 BREAST	0.915 ± 0.051	0.912 ± 0.083	0.944 ± 0.076	0.927 ± 0.029	0.931 ± 0.071	0.933 ± 0.021	0.676 ± 0.025	0.316 ± 0.03	0.87 ± 0.04	0.861 ± 0.032	0.904 ± 0.016	0.83 ± 0.0039	0.226 ± 0.024	0.119 ± 0.015	0.0875 ± 0.0079	0.076 ± 0.0061
MDAMB453 BREAST	1.04 ± 0.059	0.995 ± 0.032	1.02 ± 0.079	1.02 ± 0.037	1.08 ± 0.037	1.05 ± 0.048	0.511 ± 0.072	0.257 ± 0.014	1.01 ± 0.017	1.04 ± 0.03	0.842 ± 0.057	0.356 ± 0.014	0.052 ± 0.027	0.048 ± 0.012	0.0367 ± 0.0049	0.042 ± 0.018
DU4475 BREAST	0.835 ± 0.14	0.807 ± 0.045	0.849 ± 0.11	0.901 ± 0.23	0.782 ± 0.17	0.746 ± 0.066	0.452 ± 0.12	0.114 ± 0.044	0.798 ± 0.24	0.794 ± 0.15	0.764 ± 0.11	0.392 ± 0.11	0.0277 ± 0.0047	0.0283 ± 0.0051	0.027 ± 0.0066	0.0267 ± 0.0029
NCIH441 LUNG	1.1 ± 0.058	1.03 ± 0.073	1.08 ± 0.036	1.03 ± 0.065	1.03 ± 0.097	1.03 ± 0.084	0.922 ± 0.09	0.575 ± 0.093	0.906 ± 0.13	1.02 ± 0.04	0.982 ± 0.046	0.993 ± 0.074	0.609 ± 0.069	0.416 ± 0.033	0.3 ± 0.025	0.308 ± 0.018
CASKI CERVIX	0.889 ± 0.044	0.923 ± 0.029	0.899 ± 0.078	0.939 ± 0.063	1.02 ± 0.057	1.05 ± 0.052	0.683 ± 0.1	0.0593 ± 0.004	0.745 ± 0.065	0.787 ± 0.04	0.77 ± 0.057	0.599 ± 0.072	0.1 ± 0.007	0.054 ± 0.0053	0.0283 ± 0.0025	0.0287 ± 0.0015
SJSA1 BONE	0.941 ± 0.086	1.68 ± 0.14	1.73 ± 0.12	1.72 ± 0.037	1.75 ± 0.13	1.77 ± 0.08	1.67 ± 0.043	1.78 ± 0.08	0.84 ± 0.049	0.865 ± 0.064	0.872 ± 0.023	0.846 ± 0.029	0.217 ± 0.02	0.106 ± 0.0032	0.0517 ± 0.0055	0.0433 ± 0.0011
BT549 BREAST	0.974 ± 0.087	1.05 ± 0.1	1.05 ± 0.12	1.02 ± 0.024	0.968 ± 0.17	1.08 ± 0.14	0.53 ± 0.092	0.106 ± 0.044	0.874 ± 0.12	0.811 ± 0.034	0.604 ± 0.092	0.259 ± 0.064	0.152 ± 0.028	0.0433 ± 0.0042	0.0447 ± 0.0045	0.0467 ± 0.0025
SCC36 HEADNECK	1.09 ± 0.053	1.03 ± 0.052	1.09 ± 0.083	1.04 ± 0.091	1.22 ± 0.065	1.14 ± 0.016	0.94 ± 0.096	0.251 ± 0.029	0.696 ± 0.065	0.767 ± 0.036	0.772 ± 0.089	0.744 ± 0.093	0.518 ± 0.059	0.257 ± 0.012	0.039 ± 0.0027	0.038 ± 0.0044
HCC1806 BREAST	0.946 ± 0.076	1.02 ± 0.052	1.03 ± 0.083	1.11 ± 0.052	1.06 ± 0.053	1.15 ± 0.079	1.06 ± 0.11	0.808 ± 0.036	0.78 ± 0.076	0.783 ± 0.065	0.571 ± 0.12	0.123 ± 0.056	0.0273 ± 0.0015	0.0247 ± 0.0015	0.023 ± 0.001	0.0243 ± 0.0015
SG43 HEADNECK	0.84 ± 0.071	0.88 ± 0.13	0.807 ± 0.25	1.04 ± 0.39	0.702 ± 0.091	0.854 ± 0.23	0.91 ± 0.082	0.847 ± 0.11	1.1 ± 0.2	1.1 ± 0.22	1.05 ± 0.043	0.801 ± 0.25	0.302 ± 0.069	0.074 ± 0.034	0.03 ± 0.004	0.028 ± 0.0062
MG63 BONE	0.991 ± 0.015	1.008 ± 0.0075	1.02 ± 0.014	1.01 ± 0.018	1.04 ± 0.029	1.05 ± 0.021	0.971 ± 0.034	0.861 ± 0.03	0.886 ± 0.028	0.88 ± 0.012	0.976 ± 0.028	0.919 ± 0.017	0.957 ± 0.014	0.733 ± 0.021	0.258 ± 0.0081	0.173 ± 0.0036
ZR751 BREAST	1.06 ± 0.12	1.04 ± 0.097	1.02 ± 0.039	1.13 ± 0.058	1.06 ± 0.048	1.04 ± 0.098	1.07 ± 0.039	0.645 ± 0.11	1.17 ± 0.2	1.04 ± 0.12	0.994 ± 0.1	0.618 ± 0.13	0.22 ± 0.022	0.228 ± 0.032	0.213 ± 0.013	0.207 ± 0.024
CAL51 BREAST	0.949 ± 0.068	1.01 ± 0.081	0.992 ± 0.018	0.996 ± 0.063	0.967 ± 0.044	1 ± 0.046	0.48 ± 0.036	0.0988 ± 0.0065	0.966 ± 0.047	0.886 ± 0.052	0.989 ± 0.033	0.93 ± 0.033	0.361 ± 0.0083	0.0827 ± 0.0082	0.0253 ± 0.00076	0.024 ± 0.0005
MDAMB468 BREAST	0.994 ± 0.12	1.08 ± 0.056	1.03 ± 0.053	1.13 ± 0.072	1.09 ± 0.055	1.15 ± 0.065	1.01 ± 0.081	0.99 ± 0.064	0.901 ± 0.05	0.826 ± 0.03	0.95 ± 0.039	0.931 ± 0.04	0.92 ± 0.082	0.31 ± 0.022	0.219 ± 0.029	0.218 ± 0.021
MCF7 BREAST	0.846 ± 0.015	0.837 ± 0.017	0.857 ± 0.0097	0.8506 ± 0.0053	0.903 ± 0.027	0.924 ± 0.083	0.943 ± 0.048	0.685 ± 0.086	0.842 ± 0.015	0.817 ± 0.027	0.811 ± 0.021	0.777 ± 0.058	0.429 ± 0.0029	0.329 ± 0.0083	0.271 ± 0.015	0.275 ± 0.012

From the supplement of paper PMC6045584
